How the values were obtained:
[1] = molecular target: T1, rat vanilloid receptor 1 (VR1/TRPV1) (Rattus norvegicus, UniProt O35433); test: FLIPR Ca2+ influx functional study on rat vanilloid receptor 1; type: cell-based; conditions: CHO K1 cells transfected with rat VR1; for Emax at 10 µM: test substance 10 μM, Ca2+ signal relative to 10 μM capsaicin, read-out: VR1 (Rat) (% Stimulation compared with 10 μM CP)
T1 construct: expressed in transfected cells; host or cells: CHO K1 cells (ECACC)
Description: (§1) 1. Functional Study on the Vanilloid Receptor 1 (VR1/TRPV1 Receptor)
(§2) The agonist activity or antagonist activity of the substances to be tested on the vanilloid receptor 1 (VR1/TRPV1) of the species human and rat can be determined using the following assay. According to this assay, the Ca^2+ influx through the channel is quantified by means of a Ca^2+-sensitive dye (type Fluo-4, Molecular Probes Europe BV, Leiden, Netherlands) in the Fluorescent Imaging Plate Reader (FLIPR, Molecular Devices, Sunnyvale, USA).
(§3) Chinese hamster ovary cells (CHO K1 cells, European Collection of Cell Cultures (ECACC), England) are stably transfected with the human or rat vanilloid receptor 1 (VR1) gene. For functional studies, these cells are plated out in a density of 25,000 cells/well on poly-D-lysine-coated, black 96-well plates having a clear base (BD Biosciences, Heidelberg, Germany). The cells are incubated overnight at 37° C. and 5% CO2 in culture medium (Nutrient Mixture Ham's F12, Gibco Invitrogen GmbH, Karlsruhe, Germany) with 10% v/v of FBS (fetal bovine serum, Gibco Invitrogen GmbH, Karlsruhe, Germany) and 18 μg/ml of L-proline (Gibco Invitrogen GmbH, Karlsruhe, Germany). On the following day, the cells are charged with 2 μM of Fluo-4 and 0.01% v/v of Pluronic F127 (Molecular Probes Europe BV, Leiden, Netherlands) in HBSS buffer solution (Hank's buffered saline solution, Gibco Invitrogen GmbH, Karlsruhe, Germany) for 30 minutes at 37° C. The plates are then washed three times with HBSS buffer solution and, after incubation for a further 15 minutes at room temperature, used in the FLIPR assay for Ca^2+ measurement. The Ca^2+-dependent fluorescence is measured before and after the addition of test substances (λex=488 nm, λem=540 nm). Quantification is effected by measuring the highest fluorescence intensity (FC, fluorescence counts) over time.
(§4) The FLIPR protocol consists of two additions of test substance. Test substances (10 μM) are first pipetted onto the cells and the Ca^2+ influx is compared with the control (capsaicin 10 μM). This gives the percentage activation, based on the Ca^2+ signal after the addition of 10 μM of capsaicin (CP). After 5 minutes' incubation, 100 nM of capsaicin are applied and the influx of Ca^2+ is likewise determined. Desensitizing agonists and antagonists lead to suppression of the Ca^2+ influx. The percentage inhibition compared with the maximum achievable inhibition is calculated using 10 μM of capsaicin. In order to determine the EC50 values, the substances are added in various concentrations. Determinations are carried out in triplicate (n=3) and these are repeated in at least three independent experiments (N=4).
(§5) The agonist activity or antagonist activity was determined on human and rat vanilloid receptor 1 (VR1/TRPV1 receptor) using the above-described FLIPR assay.

[2] = molecular target: T2, human vanilloid receptor 1 (VR1/TRPV1) (Homo sapiens, UniProt Q8NER1); test: FLIPR Ca2+ influx functional study on human vanilloid receptor 1; type: cell-based; conditions: CHO K1 cells transfected with human VR1; for Emax at 10 µM: test substance 10 μM, Ca2+ signal relative to 10 μM capsaicin, read-out: VR1 (Human) (% Stimulation compared with 10 μM CP)
T2 construct: expressed in transfected cells; host or cells: CHO K1 cells (ECACC)
Description: as §1, §2, §3, §4, §5

[3] = system: phenylquinone-induced writhing in mice; test: Phenylquinone-induced writhing test on mice; type: in vivo, male NMRI mice; conditions: phenylquinone i.p. 10 min after dose
Experimental: 2. Analgesic Test Using the Writhing Test on Mice
The analysis of analgesic activity in the compounds of the invention of formula is carried out using the phenylquinone-induced writhing assay in mice, modified as described in the article by I. C. Hendershot and J. Forsaith (1959) in J. Pharmacol. Exp. Ther. 125, 237-240. The relevant description is incorporated herein by reference and is to be regarded as part of the present disclosure.
For the present purpose, male NMRI mice are used having a weight of from 25 to 30 g. Groups of 10 animals per substance dose received, 10 minutes after an intravenous dose of test substances, an intraperitoneal administration of 0.3 ml/mouse of a 0.02% strength aqueous solution of phenylquinone(phenylbenzoquinone, obtainable from Sigma, Deisenhofen; solution produced with the addition of 5% of ethanol and storage in a water bath at 45° C.). The animals were placed individually in observation cages. Using a pushbutton counter, the number of pain-induced stretching movements (so-called writhing reactions=straightening of the body accompanied by stretching of the rear extremities) was counted over a period of from 5 to 20 minutes following the administration of phenylquinone. The control is provided by animals receiving only physiological saline. […]

T2 sequence (Q8NER1 whole entry): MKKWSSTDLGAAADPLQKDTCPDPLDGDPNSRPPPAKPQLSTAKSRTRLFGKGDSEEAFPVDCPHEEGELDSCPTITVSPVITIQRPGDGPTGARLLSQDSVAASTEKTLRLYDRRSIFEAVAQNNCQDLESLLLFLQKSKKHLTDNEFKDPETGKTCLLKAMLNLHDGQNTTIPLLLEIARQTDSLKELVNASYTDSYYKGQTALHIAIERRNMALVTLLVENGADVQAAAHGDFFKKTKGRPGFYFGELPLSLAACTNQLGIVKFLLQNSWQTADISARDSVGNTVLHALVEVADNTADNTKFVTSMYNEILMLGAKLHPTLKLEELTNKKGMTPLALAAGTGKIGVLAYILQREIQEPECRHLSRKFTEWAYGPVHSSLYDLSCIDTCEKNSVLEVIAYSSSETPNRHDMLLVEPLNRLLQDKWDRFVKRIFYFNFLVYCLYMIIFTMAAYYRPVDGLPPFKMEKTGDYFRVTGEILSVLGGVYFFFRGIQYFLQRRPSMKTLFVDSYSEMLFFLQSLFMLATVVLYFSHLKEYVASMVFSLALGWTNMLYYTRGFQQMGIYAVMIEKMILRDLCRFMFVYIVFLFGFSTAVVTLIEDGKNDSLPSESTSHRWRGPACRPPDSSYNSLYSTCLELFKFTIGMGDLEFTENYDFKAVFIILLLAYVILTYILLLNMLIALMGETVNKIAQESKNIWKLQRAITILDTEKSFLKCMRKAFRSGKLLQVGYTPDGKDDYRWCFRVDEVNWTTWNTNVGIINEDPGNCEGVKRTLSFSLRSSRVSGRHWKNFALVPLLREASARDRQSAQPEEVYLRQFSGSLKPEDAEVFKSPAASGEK
T1 sequence (O35433 whole entry): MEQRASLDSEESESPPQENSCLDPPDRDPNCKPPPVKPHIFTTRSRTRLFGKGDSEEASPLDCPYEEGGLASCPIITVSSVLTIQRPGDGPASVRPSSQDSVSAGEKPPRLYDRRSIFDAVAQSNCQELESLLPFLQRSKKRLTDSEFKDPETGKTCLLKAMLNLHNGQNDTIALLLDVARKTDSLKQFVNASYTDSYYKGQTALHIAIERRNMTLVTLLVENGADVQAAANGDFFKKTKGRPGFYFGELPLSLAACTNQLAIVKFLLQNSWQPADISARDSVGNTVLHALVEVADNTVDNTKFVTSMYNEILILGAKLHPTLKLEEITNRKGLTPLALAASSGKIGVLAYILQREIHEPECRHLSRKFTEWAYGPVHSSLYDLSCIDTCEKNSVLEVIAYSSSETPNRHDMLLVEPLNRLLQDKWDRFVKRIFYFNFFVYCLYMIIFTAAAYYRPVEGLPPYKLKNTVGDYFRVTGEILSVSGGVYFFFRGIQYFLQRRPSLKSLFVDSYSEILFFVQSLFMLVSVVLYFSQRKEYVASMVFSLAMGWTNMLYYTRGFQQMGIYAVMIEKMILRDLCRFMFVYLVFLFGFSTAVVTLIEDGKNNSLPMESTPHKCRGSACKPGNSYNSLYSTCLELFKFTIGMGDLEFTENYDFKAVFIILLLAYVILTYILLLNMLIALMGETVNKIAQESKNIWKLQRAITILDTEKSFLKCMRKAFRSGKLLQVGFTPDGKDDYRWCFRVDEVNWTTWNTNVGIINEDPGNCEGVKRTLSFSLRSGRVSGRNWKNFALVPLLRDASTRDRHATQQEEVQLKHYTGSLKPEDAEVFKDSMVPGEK

| SMILES | Emax at 10 µM [1] | Emax at 10 µM [2] | Reduction of Nociceptive Behavior Relative to Controls ([3]; 0.1 mg/kg i.v.) | EC50 ([1]; FLIPR Ca2+ influx) | EC50 ([2]; FLIPR Ca2+ influx) | Reduction of Nociceptive Behavior Relative to Controls ([3]; 0.316 mg/kg i.v.) |
| --- | --- | --- | --- | --- | --- | --- |
| COc1cc(CNC(=O)/C=C/c2ccc(C)cc2)ccc1O [Example 1, para-methyl-trans-N-(4-hydroxy-3-methoxybenzyl)-cinnamic acid amide] | 92% | 56% |  |  |  |  |
| CCc1ccc(/C=C/C(=O)NCc2ccc(O)c(OC)c2)cc1 [Example 2, para-ethyl-trans-N-(4-hydroxy-3-methoxybenzyl)-cinnamic acid amide] | 84% | 71% | 54% |  |  |  |
| COc1cc(CNC(=O)/C=C/c2ccc(C(C)C)cc2)ccc1O [Example 3, para-isopropyl-trans-N-(4-hydroxy-3-methoxybenzyl)-cinnamic acid amide] | 97% | 71% | 52% |  |  |  |
| COc1cc(CNC(=O)/C=C/c2ccc(C(C)(C)C)cc2)ccc1O [Example 4, para-tert.-Butyl-trans-N-(4-hydroxy-3-methoxybenzyl)-cinnamic acid amide] | 106% | 115% | 63% | 0.129 nM | 0.147 nM |  |
| CCCc1ccc(/C=C/C(=O)NCc2ccc(O)c(OC)c2)cc1 [Example 5, para-propyl-trans-N-(4-hydroxy-3-methoxybenzyl)-cinnamic acid amide] | 119% | 102% |  |  |  | 55% |
| COc1cc(CNC(=O)/C=C/c2ccc(CC(C)C)cc2)ccc1O [Example 6, para-iso-butyl-trans-N-(4-hydroxy-3-methoxybenzyl)-cinnamic acid amide] | 141% | 103% | 70% |  |  |  |
| COc1cc(CNC(=O)/C=C/c2ccc(CC(C)(C)C)cc2)ccc1O [Example 7, para-neo-pentyl-trans-N-(4-hydroxy-3-methoxybenzyl)-cinnamic acid amide] | 142% | 102% |  |  |  |  |
| CCCCc1ccc(/C=C/C(=O)NCc2ccc(O)c(OC)c2)cc1 [Example 8, para-butyl-trans-N-(4-hydroxy-3-methoxybenzyl)-cinnamic acid amide] | 132% | 110% |  |  |  |  |
| CCCCCCCCc1ccc(/C=C/C(=O)NCc2ccc(O)c(OC)c2)cc1 [Example 9, para-octyl-trans-N-(4-hydroxy-3-methoxybenzyl)-cinnamic acid amide] | 126% | 97% | 47% |  |  |  |
